Test system: melanoma patients
Assay: Survival and IHC biomarker expression in melanoma patients undergoing anti-PD-1 therapy
Assay type: in vivo, human
Conditions: for progression-free survival: greater than 25% vs less than 25% 4E-BP1 expression in pre-treatment biopsies; for progression-free survival / overall survival: Kaplan-Meier; for patients still alive 35 months after initiation of treatment: melanoma patients with >25% p-SHP2 expression in pre-treatment biopsies; for overall survival: n=34, >25% vs less than 25% melanoma-p-S6 expression in pre-treatment biopsies
Description: As used herein, the term “progression-free survival” refers to the time from the first administration of anti-PD-1-based therapy to the first documented radiographic evidence of progressive disease. The term “overall survival” is defined as the time from the first administration of anti-PD-1 therapy to the date of death, regardless of cause.
Tumor cell lines, culture methods and clinical specimens: Human G3361 and C8161 and murine B16-F10 melanoma cell lines were cultured in RPMI-1640 medium (Life Technologies) supplemented with 10% (v/v) fetal bovine serum (Life Technologies) and 1% (v/v) penicillin streptomycin (Life Technologies) and human MKL-1, MKL-2, MS-1, and WaGa Merkel cell carcinoma cell lines in RPMI-1640 medium supplemented with 20% (v/v) fetal bovine serum and 1% (v/v) penicillin streptomycin. Clinical melanoma specimens were obtained from patients in accordance with the Institutional Review Boards of Partners Health Care Research Management, Boston, Mass. and the University of Zurich, Switzerland. Informed consent was obtained from all subjects.
Immunohistochemical (IHC) staining methods: Tumor biopsy sections were deparaffininzed in xylene and subsequently rehydrated with 100%, 95%, and 75% ethanol and deionized H2O. Sections were placed in target retrieval solution (Dako) and boiled in a Pascal pressure chamber (Dako) at 125° C. for 30 seconds, 90° C. for 10 seconds, and then cooled down to room temperature. IHC was performed using the two-step peroxidase or alkaline phosphatase method. For peroxidase-based detection of p-S6 and p-AKT, sections were incubated with 1 ug/ml rabbit anti-p-56 ribosomal protein or rabbit anti-p-AKT (Ser473) antibody (Cell Signaling Technology) at 4° C. overnight and then incubated with a 1:200 dilution of goat anti-rabbit IgG peroxidase conjugated antibody (Vector Laboratories) at room temperature for 1 hour. Immunoreactivity was detected using the NovaRed peroxidase substrate (Vector laboratories), according to the manufacturer's protocol. For alkaline phosphatase-based detection of t-SHP2, p-SHP2, p-S6, p-AKT, p-PI3K, p-PDK1, 4E-BP1, or p-eIF-4G, sections were incubated with a 1:200 dilution of t-SHP2, p-SHP2 (Santa Cruz Biotechnology), p-S6, p-AKT, p-PI3K, p-PDK1, 4E-BP1, or p-eIF-4G antibody (Cell Signaling Technology) for 1 hour at room temperature, followed by incubation with a 1:100 dilution of biotin-conjugated secondary antibody (R&D Systems) for 30 minutes at room temperature and a subsequent incubation with a 1:100 dilution of streptavidin-alkaline phosphatase (Roche) for 30 minutes at room temperature. Immunoreactivity was detected using the FAST Red Chromogen System (Biolegend), per the manufacturer's instructions. Nuclear counterstaining (blue) was performed with Meyer's haemalum for both methods.
Imaging and quantification of IHC tumor sections: All images of IHC-stained sections were analyzed with a Nikon microscope (DXM 1200F) and captured using the NIS-Elements software (BR 2.30 Nikon). Expression of p-S6 and 4E-BP1 antigens was graded by n=2-3 independent investigators blinded to the study outcome on a scale of 0-4 (0: no p-S6 expression by melanoma cells; 1: p-S6 expression in 1%-25%; 2: 26%-50%; 3:51%-75%; 4: >75% of melanoma cells). For each slide, at least two areas with the highest numbers of 5-100(+) and MART-1(+) melanoma cells, as determined in serial sections, were selected for analysis.

Substance | progression-free survival | patients still alive 35 months after initiation of treatment [%] | overall survival
Pembrolizumab | significantly increased | 100 | significantly enhanced
Nivolumab | significantly increased | 100 | significantly enhanced
